From patent publication US10889553B2, “Asymmetric triazole benzamide derivatives and the compositions and methods of treatment regarding the same” (NysnoBio Ireland DAC, priority 2017, dated 2021)
Where two headings read alike, the source gives them in different places.

What was measured:
[1] = test system: HCT-116 (colon); assay: Cancer cell proliferation assay (acid phosphatase); format: cell-based; conditions: Table 6A, 72 hrs, read-out: HCT-116 IC50
Experimental: (§1) Measurement of the inhibitive effect of compounds on cancer cell proliferation was performed. Various cell lines were tested, including HCT-116 (colon); A549 (lung); TOV-21G (ovarian); Calu-6 (lung); and LS-174T (colon); and cell lines H1703 (Lung) and SKOV3 (ovarian); JEKO-1 (lymophoma); TOV-112D (ovarian) are tested. The assays were performed under the following conditions: Cells are harvested at a concentration of 4×10^4 cells/ml in media. Volumes of 100 μl/well of these cell suspensions were added to a 96 well plate using a multichannel pipette. Plates were gently agitated to ensure an even dispersion of cells over a given plate. Cells were then incubated at 37° C., 5% CO2 overnight. Following this, 100 μl of compound at varying concentrations was added to wells in triplicate. Control wells are those with 100 μl media containing 0.33% DMSO added to cell suspension (this is the equivalent volume of DMSO found in the highest concentration of drug). Plates were then gently agitated, as above, and incubated at 37° C., 5% CO2 for 72 hrs (control wells have reached 80-90% confluency). Assessment of cell proliferation in the presence of the compound was determined by the acid phosphatase assay.
(§2) Following the incubation period of 72 hrs, media was removed from the plates. Each well on the plate was washed twice with 100 μl PBS. This was then removed and 100 μl of freshly prepared phosphatase substrate (10 mM p-nitrophenol phosphate in 0.1M sodium acetate, 0.1% triton X-100, pH 5.5) was added to each well. The plates were then incubated in the dark at 37° C. for 2 hours. Colour development was monitored during this time. The enzymatic reaction was stopped by the addition of 50 μl of 1N NaOH. The plate was read in a dual beam plate reader at 405 nm with a reference wavelength of 620 nm. The absorbance reading of the latter is subtracted from the former, and the effect of the drug on cell proliferation was then measured as a percentage against the control cells (DMSO), which is taken as 0% inhibition.

[2] = test system: TOV-21G (ovarian); assay: Cancer cell proliferation assay (acid phosphatase); format: cell-based; conditions: Table 6A, 72 hrs, read-out: TOV-21G IC50
Experimental: as §1, §2

[3] = test system: A549 (lung); assay: Cancer cell proliferation assay (acid phosphatase); format: cell-based; conditions: Table 6A, 72 hrs, read-out: A549 IC50
Experimental: as §1, §2

[4] = target: T1, Parkin ligase (Homo sapiens, UniProt O60260); assay: Activity-Based Probe Assay using Ubiquitin vinyl sulfone probe (TR-FRET); format: biochemical; conditions: heat activated Parkin, HA-Ub-VS probe, activation EC50; read-out: Probe Assay EC50 (μM) [Example 2]
T1 sequence (O60260 1-465): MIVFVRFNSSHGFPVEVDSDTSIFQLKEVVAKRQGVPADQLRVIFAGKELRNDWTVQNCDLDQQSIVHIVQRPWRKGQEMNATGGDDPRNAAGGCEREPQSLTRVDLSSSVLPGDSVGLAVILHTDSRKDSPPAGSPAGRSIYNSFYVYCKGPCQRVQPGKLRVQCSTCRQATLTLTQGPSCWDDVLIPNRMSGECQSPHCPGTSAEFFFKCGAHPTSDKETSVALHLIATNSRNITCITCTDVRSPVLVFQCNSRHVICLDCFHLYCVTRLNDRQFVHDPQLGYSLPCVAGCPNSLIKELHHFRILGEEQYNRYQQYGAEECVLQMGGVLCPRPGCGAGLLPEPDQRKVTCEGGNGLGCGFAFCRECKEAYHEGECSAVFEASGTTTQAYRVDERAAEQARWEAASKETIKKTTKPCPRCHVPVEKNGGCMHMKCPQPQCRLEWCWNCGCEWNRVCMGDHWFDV
Summary of the method: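 Heat-activated His-Parkin (5 min, 58 °C; 40 nM) was preincubated 15 min with compound, then reacted 60 min at 22 °C with 70 nM HA-Ub-VS in 50 mM HEPES pH 8.5, 150 mM NaCl, 0.01% Tween 20, 0.1% BSA. Probe labelling was read by anti-His-Eu/anti-HA-XL665 TR-FRET (665/615 ratio). % activation was normalized to DMSO and 100 nM control activator, then fitted with a four-parameter curve (Bottom=0, Top=100).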

[5] = Microsomal stability assay, rat liver microsomes; format: in vitro ADME; conditions: pH 7.4; rat liver microsomes 1.0 mg/mL, 1 μM compound, NADPH; read-out: RLM t1/2
Experimental: (§3) Compounds were also tested for metabolic stability in both rat liver microsomes (RLM) and the compounds are tested for human liver microsomes (HLM) and their half-life is calculated (See Tables 5A and 5B). The assay was performed as follows. The total volume for each incubation was 250 μL. A 100 μM DMSO solution of compound (diluted from 10 mM stock solution) was spiked into 50 mM KH2PO4 (pH 7.4) buffer containing liver microsome at a concentration of 1.0 mg/mL. The reaction was initiated by the addition of 50 μL of 1 mM NADPH. The final concentration of each compound was 1 μM (1% DMSO). The positive controls, phenacetin for CYP1A2, diclofenac for CYP2C9, omeprazole for CYP2C19, dextromethorphan for CYP2D6 and midazolam for CYP3A4 were added to a separate tube with the final substrate concentrations of 1 μM (1% DMSO) for evaluating the enzyme activities in the liver microsomes. At 0, 15, 30 and 60 min, an aliquot of 15 μL reaction mixtures were removed and 200 μL of methanol (with internal standard of 25 ng/mL propranolol) was added to quench the reaction. The resulting mixture was centrifuged and supernatant was used for LC-MS/MS analysis.
(§4) The signals for each compound, or the metabolites for the probe substrates and the internal standard were integrated and the peak area ratios to internal standard were generated. Percent parent remaining at a specified timepoint was calculated based on the peak area ratios at time 0 (as 100%) for in vitro metabolic stability studies in liver microsome and hepatocyte. The observed rate constant (kobs) for the metabolism of substrates was calculated by plotting the natural log of percentage substrate remaining versus time of incubation with the slope being kobs. The half-life (T1/2) was calculated according to the following equation: T1/2=[…]

[6] = Microsomal stability assay, human liver microsomes; format: in vitro ADME; conditions: pH 7.4; human liver microsomes 1.0 mg/mL, 1 μM compound, NADPH; read-out: HLM t1/2
Experimental: as §3, §4

[7] = test system: TOV-112D (ovarian); assay: Cancer cell proliferation assay (acid phosphatase); format: cell-based; conditions: Homo sapiens, TOV112D; Table 6B; 72 hrs; read-out: TOV-112D IC50
Experimental: as §1, §2

[8] = test system: JEKO-1 (lymophoma); assay: Cancer cell proliferation assay (acid phosphatase); format: cell-based; conditions: Homo sapiens, Table 6B, 72 hrs, read-out: JEKO-1 IC50
Experimental: as §1, §2

Row | Compound | IC50 ([1]; Homo sapiens, HCT-116, 72 h) [nM] | IC50 ([2]; Homo sapiens, TOV21G, 72 h) [nM] | IC50 ([3]; Homo sapiens, A549, 72 h) [nM] | EC50 [4] [µM] | IC50 [1] [nM] | IC50 [2] [nM] | IC50 [3] [nM] | half-life at 1 μM [5] [h] | half-life at 1 μM [6] [h] | IC50 [7] [nM] | IC50 [8] [nM]
1 | Cc1ccccc1C(=O)Nc1nc(-c2cccc(F)n2)nn1-c1ccc(C(F)(F)F)cc1 [Compound 131] | 2300 | 2200 | 2300 | 2 | – | – | – | – | – | – | –
2 | Cc1ccccc1C(=O)Nc1nc(-c2cccc(F)n2)nn1-c1cccc(F)c1 [Compound 132] | – | – | – | 3 | 2200 | 1900 | 2400 | – | – | – | –
3 | Cc1cccc(-c2nc(NC(=O)c3ccccc3C)n(-c3ccc(C(F)(F)F)cc3)n2)n1 [Compound 133] | 2300 | 1800 | 2500 | 1 | – | – | – | – | – | – | –
4 | Cc1ccccc1C(=O)Nc1nc(-c2cccc(F)n2)nn1-c1ccc(Cl)cc1 [Compound 134] | 2300 | 1800 | 2600 | 4 | – | – | – | – | – | – | –
5 | Cc1ccccc1C(=O)Nc1nc(-c2ncccc2C)nn1-c1cccc(F)c1 [Compound 146] | 400 | 500 | 300 | 1 | – | – | – | – | – | – | –
6 | COc1ccccc1-c1nc(NC(=O)c2ccccc2C)n(-c2ccc(OC(F)(F)F)cc2)n1 [Compound 154] | > 2500 | – | – | – | – | – | – | 1.7 | 2.22 | – | –
7 | Cc1ccccc1C(=O)Nc1nc(-c2ccccc2O)nn1-c1ccc(Cl)cc1 [Compound 155] | 240 | – | – | – | – | – | – | 0.29 | 1.06 | 40 | 40
8 | Cc1ccccc1C(=O)Nc1nc(-c2ccccc2O)nn1-c1ccc(C(F)(F)F)cc1 [Compound 156] | 240 | – | – | – | – | – | – | 0.395 | 2.63 | 40 | 80
9 | Cc1ccccc1C(=O)Nc1nc(-c2ccccc2O)nn1-c1cccc(F)c1 [Compound 157] | 350 | – | – | – | – | – | – | 0.275 | 0.7 | 120 | 80
10 | Cc1ccccc1C(=O)Nc1nc(-c2cc(Cl)ccc2O)nn1-c1ccc(OC(F)(F)F)cc1 [Compound 158] | 240 | – | – | – | – | – | – | 2.82 | 2.75 | 190 | 200
11 | Cc1ccc(O)c(-c2nc(NC(=O)c3ccccc3C)n(-c3ccc(OC(F)(F)F)cc3)n2)c1 [Compound 159] | 300 | – | – | – | – | – | – | 2.63 | 2.97 | 60 | 90
12 | Cc1cccc(C(=O)Nc2nc(NC(=O)c3cccc(C)c3)n(-c3ccccc3)n2)c1 [Compound F3] | 2000 | 2300 | 2300 | – | – | – | – | – | – | – | –
